From patent US20190218226A1, “PRODRUGS OF ANTICANCER AGENTS INDOTECAN AND INDIMITECAN” (Purdue Research Foundation, priority 2016, published 2019)

Columns and labels:
OVCAR-3 = test: NCI60 antiproliferative screen, ovarian OVCAR-3; assay type: cell-based, human; conditions: OVCAR-3, 48 h, sulforhodamine B; read-out: Cytotoxicity (GI50) Ovarian OVCAR-3
Summary of the method: (§1)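 Human tumour cells incubated 48 h with test compound over a 0.01–100 μM range, then sulforhodamine B dye added and absorbance read. GI50 derived by interpolating percentage growth relative to control.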

MCF-7 = test: NCI60 antiproliferative screen, breast MCF-7; assay type: cell-based, human; conditions: MCF-7, 48 h, sulforhodamine B; read-out: Cytotoxicity (GI50) breast MCF-7
Summary of the method: as §1

UACC-62 = test: NCI60 antiproliferative screen, melanoma UACC-62; assay type: cell-based, human; conditions: UACC-62, 48 h, sulforhodamine B; read-out: Cytotoxicity (GI50) melanoma UACC-62
Summary of the method: as §1

SN12C = test: NCI60 antiproliferative screen, renal SN12C; assay type: cell-based, human; conditions: 48 h, sulforhodamine B, read-out: Cytotoxicity (GI50) renal SN12C
Summary of the method: as §1

DU-145 = test: NCI60 antiproliferative screen, prostate DU-145; assay type: cell-based, human; conditions: DU-145, 48 h, sulforhodamine B; read-out: Cytotoxicity (GI50) prostate DU-145
Summary of the method: as §1

SF-539 = test: NCI60 antiproliferative screen, CNS SF-539; assay type: cell-based, human; conditions: SF-539, 48 h, sulforhodamine B; read-out: Cytotoxicity (GI50) CNS SF-539
Summary of the method: as §1

[1] = Stability of compound 17 in cell culture medium; assay type: physicochemical; conditions: 10 μM, cell-free RPMI 1640 medium, 37° C., after 99 hours
Procedure: In order to investigate the possibility that hydrolysis of the prodrugs takes place extracellularly rather than intracellularly, compound 17 was added to cell-free cell culture medium and the mixture was incubated at 37° C. Relatively slow conversion to the parent phenol 9 was observed, with 22% conversion after 99 hours.
Stability of Compound 17 in Cell Culture Medium.
RPMI 1640 medium was purchased from Sigma-Aldrich (St. Louis, Mo.). Compound 17 (10 μM) was incubated at 37° C. with RPMI 1640 medium. After 99 h, an aliquot was taken from the incubation mixture and filtered prior to analysis using LC-MS (Waters, Germany). The flow rate was 0.75 mL/min and the eluent was recorded with a DAD at 280 nm.

HOP-62 = test: NCI60 antiproliferative screen, lung HOP-62; assay type: cell-based, human; conditions: HOP-62, 48 h, sulforhodamine B; read-out: Cytotoxicity (GI50) lung HOP-62
Summary of the method: as §1

- conversion to the parent phenol 9 [1]: 22%
Structure (SMILES): COC(=O)CCC(=O)Oc1cc2c(=O)n(CCCN3CCOCC3)c3c(c2cc1OC)C(=O)c1cc2c(cc1-3)OCO2 [Compound 17, 2-Methoxy-6-(3-morpholinopropyl)-5,12-dioxo-6,12-dihydro-5H-[1,3]dioxolo[4′,5′:5,6]indeno[1,2-c]isoquinolin-3-yl Methyl Succinate]
- GI50 (OVCAR-3): 37 nM
- GI50 (MCF-7): < 10 nM
- GI50 (UACC-62): 18 nM
- GI50 (SN12C): < 10 nM
- GI50 (DU-145): 14 nM
- GI50 (SF-539): < 10 nM
- GI50 (HOP-62): 16 nM
